Assay results taken from publication PMC10392058 (FEBS Open Bio, 2023).
One block for each compound: values may come before it.

Experiments:
[1] = MDCKII bidirectional permeability, mock transfected cells; type: in vitro ADME; settings: dog, MDCK
BCRP = biological target: T1, BCRP (Homo sapiens, UniProt Q9UNQ0); experiment: MDCKII bidirectional permeability, BCRP expressing cells; settings: dog
T1 sequence (Q9UNQ0 1-655): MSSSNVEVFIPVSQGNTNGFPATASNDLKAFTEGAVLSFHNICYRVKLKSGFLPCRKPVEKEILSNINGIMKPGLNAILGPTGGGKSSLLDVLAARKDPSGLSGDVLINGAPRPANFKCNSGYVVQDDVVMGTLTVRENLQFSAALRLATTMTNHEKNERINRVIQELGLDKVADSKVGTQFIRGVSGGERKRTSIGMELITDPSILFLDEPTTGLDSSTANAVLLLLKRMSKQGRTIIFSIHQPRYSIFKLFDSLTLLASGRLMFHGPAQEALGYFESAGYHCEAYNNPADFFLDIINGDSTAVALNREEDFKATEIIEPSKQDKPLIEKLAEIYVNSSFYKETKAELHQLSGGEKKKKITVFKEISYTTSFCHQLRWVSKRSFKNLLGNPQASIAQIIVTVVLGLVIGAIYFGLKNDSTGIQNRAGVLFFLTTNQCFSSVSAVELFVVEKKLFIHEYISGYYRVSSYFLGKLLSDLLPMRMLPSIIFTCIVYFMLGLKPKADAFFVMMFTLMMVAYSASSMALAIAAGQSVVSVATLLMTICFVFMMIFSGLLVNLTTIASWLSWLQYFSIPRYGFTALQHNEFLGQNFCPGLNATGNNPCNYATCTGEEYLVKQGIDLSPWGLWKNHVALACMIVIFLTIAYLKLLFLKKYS

[2] = test system: HXA3/MRP2‐driven neutrophil epithelial transmigration; experiment: HXA3/MRP2‐driven neutrophil transmigration assay (S. typhimurium‐stimulated T84 monolayer, MPO readout); type: cell-based, human; settings: 100 μM probenecid (positive control); P = 0.0008
Protocol: As described under Materials and Methods, in the neutrophil transmigration assay, a polarized human intestinal cell line monolayer was grown on a transwell insert to mimic the intestinal epithelial barrier. The cells were then apically stimulated by the addition of pathogenic Salmonella typhimurium, eliciting HXA3 efflux via MRP2 into the apical side of the chamber. Fresh, unstimulated human neutrophils were added to the basolateral side of the monolayer, where they detected the HXA3 gradient and migrated through the epithelial monolayer to the apical side. They were then quantified by assay of myeloperoxidase (MPO), a neutrophil biomarker.
Following stimulation via pathogenic S. typhimurium to elicit HXA3 efflux, migration of fresh human neutrophils from the basolateral side of the polarized monolayer (in response to the HXA3 gradient) to the apical side was quantified by MPO activity assay. […]
In the neutrophil transmigration assay (a modified Boyden chamber assay), a polarized T84 human intestinal cell line monolayer was grown on a Transwell insert to mimic the intestinal epithelial barrier. […] Fresh human neutrophils, added to the basolateral side of the monolayer, detected the HXA3 gradient and migrated through the epithelial monolayer to the apical side, where they were quantified by assay of MPO activity, a neutrophil biomarker [47].

HXA3 release = test system: HXA3 release; parameters: method as in PMID 19017997; settings: 100 μM; cited from earlier work
MDCKII‐mock‐LV cells = experiment: MDCKII bidirectional permeability, mock transfected cells; type: in vitro ADME
MDCKII‐BCRP‐LV cells = biological target: T2, MDCKII‐BCRP‐LV cells (Homo sapiens, UniProt Q9UNQ0); experiment: MDCKII bidirectional permeability, BCRP expressing cells
T2 sequence (Q9UNQ0 1-655): T1 sequence (Q9UNQ0 1-655)

Papp A→B at 1 μM [1]: 14.7 ± 13.3 ×10⁻⁶ cm/s
Papp A→B at 1 μM (BCRP): 3.02 ± 0.84 ×10⁻⁶ cm/s
Papp B→A at 1 μM (BCRP): 53.1 ± 8.15 ×10⁻⁶ cm/s
Compound: COc1cc2nc(N3CCN(C(=O)c4ccco4)CC3)nc(N)c2cc1OC [Prazosin]

Compound: CCCN(CCC)S(=O)(=O)c1ccc(C(=O)O)cc1 [probenecid]
neutrophil migration inhibition [2]: extremely significant
inhibition of HXA3 release (HXA3 release): effectively inhibits HXA3 release

Compound: Lucifer yellow [LY]
Papp A‐B (MDCKII‐mock‐LV cells; LY 40 μg·mL^−1): 0.20 ± 0.03 × 10^−6 cm·s^−1
Papp A‐B (MDCKII‐mock‐LV cells; LY 40 μg·mL^−1 + ADS051 14 mg·mL^−1 (TA applied apically)): 0.32 ± 0.09 × 10^−6 cm·s^−1
Papp A‐B (MDCKII‐mock‐LV cells; LY 40 μg·mL^−1 + ADS051 14 mg·mL^−1 (TA applied basolaterally)): 0.46 ± 0.09 × 10^−6 cm·s^−1
Papp A‐B (MDCKII‐BCRP‐LV cells; LY 40 μg mL^−1): 0.06 ± 0.01 × 10^−6 cm·s^−1
Papp A‐B (MDCKII‐BCRP‐LV cells; LY 40 μg mL^−1 + ADS051 14 mg mL^−1 (TA applied apically)): 0.21 ± 0.02 × 10^−6 cm·s^−1
Papp A‐B (MDCKII‐BCRP‐LV cells; LY 40 μg mL^−1 + ADS051 14 mg mL^−1 (TA applied basolaterally)): 0.19 ± 0.01 × 10^−6 cm·s^−1
